Values of other authors in patent US20170157075A1, “Edible Compositions and Methods for Promoting Alpha Brain Waves” (priority 2015, published 2017).

Tests used:
[1] = not given; remark: listed apart in the source
[2] = single 100 mg nighttime dose; placebo-controlled study
[3] = 300 mg per day; controlled trial
[4] = 300 mg per day
[5] = estimated
[6] = daily 20 mg for every 10 pounds of body weight; controlled study
[7] = not given; remark: listed apart in the source
[8] = 600-900 mg daily; twelve weeks

| SMILES | therapeutic effect on cluster of mood symptoms versus placebo (6 grams daily for 17 days, three consecutive cycles, 37 patients treated, 34 placebo) | withdrawals due to drug side effects (6 grams daily, 71 women include placebo group) | share of subjects with migraine attacks reduced in frequency, severity and duration ([1]; 400 mg per day, well-controlled trial) | reduction of migraine headache attacks versus prescription medications ([1]; 600 mg per day, adults, two double blind studies) | effect on duration and depth of sleep [2] | effect on symptoms of fibromyalgia [3] | effect in depression [4] | share of an oral dose that ends up producing serotonin in the body [5] | response of children with migraines and sleep problems [6] | side effects or interactions reported during the studies ([7]; cited 5-HTP studies, 100-900 mg daily) | effect of high doses on brain dopamine ([7]; high doses, over time (Hinz et al. 2011, 2012)) | doses with no toxicity reports ([7]; humans, Examine.com summary) | average weight loss [8] |
| --- | --- | --- | --- | --- | --- | --- | --- | --- | --- | --- | --- | --- | --- |
| N[C@@H](Cc1c[nH]c2ccccc12)C(=O)O [L-tryptophan] | significant (p=0.004) therapeutic effect | 1 of 71 women |  |  |  |  |  |  |  |  |  |  |  |
| N[C@@H](Cc1c[nH]c2ccc(O)cc12)C(=O)O [5-HTP, 5-hydroxytryptophan] |  |  | 90% | as effective as prescription medications | sufficient to improve the duration and depth of sleep | effective in reducing many symptoms of fibromyalgia | often effective | 70% | responded well | mild gastrointestinal disturbances in some people, mild nausea, heartburn, flatulence, feelings of fullness, and rumbling sensations | can lead over time to depletion of brain dopamine | ≤ 50 mg/kg bodyweight | 11 lbs |
